Reference: ChEMBL document CHEMBL5352406 (Eur J Med Chem, 2022)

Key:
[1] = tested on: A549; test: Antiproliferative activity against human A549 cells assessed as cell growth inhibition after 72 hrs by MTT assay; format: functional
[2] = tested on: MCF7; test: Antiproliferative activity against human MCF7 cells assessed as cell growth inhibition after 72 hrs by MTT assay; format: functional
[3] = target: CDK9/cyclin T1 (Homo sapiens) (UniProt O60563+P50750); test: Inhibition of CDK9/CyclinT1 (unknown origin) at 500 nM by ADP-Glo kinase assay relative to control; format: protein-complex assay
[4] = target: T1, Cyclin-dependent kinase 5/CDK5 activator 1 (Homo sapiens) (UniProt Q00535+Q15078); test: Inhibition of CDK5/p25 NCK (unknown origin) at 500 nM by ADP-Glo kinase assay relative to control; format: protein-complex assay
T1 sequence (Q00535 whole entry): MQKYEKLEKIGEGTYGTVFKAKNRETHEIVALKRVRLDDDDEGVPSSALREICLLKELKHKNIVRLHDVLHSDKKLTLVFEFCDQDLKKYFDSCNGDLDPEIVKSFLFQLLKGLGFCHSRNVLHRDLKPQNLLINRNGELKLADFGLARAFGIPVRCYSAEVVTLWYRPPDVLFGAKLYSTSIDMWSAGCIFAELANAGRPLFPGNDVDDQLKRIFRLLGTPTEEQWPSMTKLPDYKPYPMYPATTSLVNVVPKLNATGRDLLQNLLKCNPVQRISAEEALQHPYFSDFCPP
T1 sequence (Q15078 99-307 partner limits assumed): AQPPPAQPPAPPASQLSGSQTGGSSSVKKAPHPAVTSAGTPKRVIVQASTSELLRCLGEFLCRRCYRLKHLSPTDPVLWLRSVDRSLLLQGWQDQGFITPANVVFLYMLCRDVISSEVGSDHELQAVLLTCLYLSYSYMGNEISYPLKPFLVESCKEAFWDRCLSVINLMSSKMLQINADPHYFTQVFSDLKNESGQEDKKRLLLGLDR

[5] = target: CDK7/Cyclin H/MNAT1 (Homo sapiens) (UniProt P51946+P50613+P51948); test: Inhibition of CDK7/Cyclin H/MAT1 (unknown origin) at 500 nM by ADP-Glo kinase assay relative to control; format: protein-complex assay
[6] = target: T1, Cyclin-dependent kinase 5/CDK5 activator 1 (Homo sapiens); test: Inhibition of CDK5/p35 NCK (unknown origin) at 500 nM by ADP-Glo kinase assay relative to control; format: protein-complex assay
[7] = target: CDK6/cyclin D3 (Homo sapiens) (UniProt P30281+Q00534); test: Inhibition of CDK6/Cyclin D3 (unknown origin) at 500 nM by ADP-Glo kinase assay relative to control; format: protein-complex assay
[8] = tested on: HCT-116; test: Inhibition of colony formation in human HCT-116 cells treated for 24 hrs followed by replaced with fresh culture media for 10 days by Colony formation assay; format: functional, cell-based; conditions: dose 2-18 nM
[9] = tested on: HCT-116; test: Induction of apoptosis in human HCT-116 cells assessed as necrotic cells at 10 nM measured after 48 hrs by Annexin V-FITC/PI assay (reference value: 2.31%); format: functional
[10] = tested on: HCT-116; test: Induction of apoptosis in human HCT-116 cells assessed as viable cells at 20 nM measured after 48 hrs by Annexin V-FITC/PI assay (reference value: 88.5%); format: functional; conditions: read-out: Activity
[11] = tested on: HCT-116; test: Cell cycle arrest in human HCT-116 cells assessed as accumulation of cells at G0-G1 phase at 10 nM measured after 48 hrs by flow cytometry (reference value: 62.18%); format: functional
[12] = tested on: HCT-116; test: Cell cycle arrest in human HCT-116 cells assessed as accumulation of cells at S phase at 10 nM measured after 48 hrs by flow cytometry (reference value: 31.43%); format: functional
[13] = Acute toxicity in po dosed Kunming mouse assessed as survival measured for 2 weeks; format: organism-based; conditions: in vivo
[14] = Acute toxicity in Kunming mouse assessed as survival at 30 mg/kg, po measured for 2 weeks; format: organism-based; conditions: in vivo
[15] = Acute toxicity in Kunming mouse assessed as survival at 46 mg/kg, po measured for 2 weeks; format: organism-based; conditions: in vivo
[16] = Acute toxicity in Kunming mouse assessed as body weight change at 20 to 105 mg/kg, po measured for 2 weeks; format: organism-based; conditions: in vivo, 336 h, dose 20-105 mg/kg
[17] = Acute toxicity in Kunming mouse assessed as behavior change at 20 to 105 mg/kg, po measured for 2 weeks; format: organism-based; conditions: in vivo, 336 h, dose 20-105 mg/kg
[18] = Half life in Sprague-Dawley rat at 20 mg/kg, po; format: ADME, organism-based; conditions: in vivo
[19] = Tmax in Sprague-Dawley rat at 2 mg/kg, iv; format: ADME, organism-based; conditions: in vivo
[20] = Tmax in Sprague-Dawley rat at 20 mg/kg, po; format: ADME, organism-based; conditions: in vivo
[21] = AUC (0 to infinity) in Sprague-Dawley rat at 20 mg/kg, po; format: ADME, organism-based; parameters: dose 20 mg/kg, route po; conditions: in vivo
[22] = Clearance in Sprague-Dawley rat at 2 mg/kg, iv; format: ADME, organism-based; conditions: in vivo
[23] = Volume of distribution at steady state in Sprague-Dawley rat at 2 mg/kg, iv; format: ADME, organism-based; conditions: in vivo, read-out: Vdss
[24] = Oral bioavailability in Sprague-Dawley rat at 20 mg/kg; format: ADME, organism-based; conditions: in vivo
[25] = tested on: HCT-116; test: Antitumor activity against human HCT-116 cells xenografted in BALB/cA-nu mouse tumor model assessed as tumor volume growth inhibition at 10 mg/kg, intragastric administration for 21 days relative to control; format: functional; conditions: HCT-116, 504 h, route ig, time 21 day, read-out: GI
[26] = target: CDK9/cyclin T1 (Homo sapiens, UniProt P50750)
CDK9/cyclin T1, sequence (O60563 whole entry): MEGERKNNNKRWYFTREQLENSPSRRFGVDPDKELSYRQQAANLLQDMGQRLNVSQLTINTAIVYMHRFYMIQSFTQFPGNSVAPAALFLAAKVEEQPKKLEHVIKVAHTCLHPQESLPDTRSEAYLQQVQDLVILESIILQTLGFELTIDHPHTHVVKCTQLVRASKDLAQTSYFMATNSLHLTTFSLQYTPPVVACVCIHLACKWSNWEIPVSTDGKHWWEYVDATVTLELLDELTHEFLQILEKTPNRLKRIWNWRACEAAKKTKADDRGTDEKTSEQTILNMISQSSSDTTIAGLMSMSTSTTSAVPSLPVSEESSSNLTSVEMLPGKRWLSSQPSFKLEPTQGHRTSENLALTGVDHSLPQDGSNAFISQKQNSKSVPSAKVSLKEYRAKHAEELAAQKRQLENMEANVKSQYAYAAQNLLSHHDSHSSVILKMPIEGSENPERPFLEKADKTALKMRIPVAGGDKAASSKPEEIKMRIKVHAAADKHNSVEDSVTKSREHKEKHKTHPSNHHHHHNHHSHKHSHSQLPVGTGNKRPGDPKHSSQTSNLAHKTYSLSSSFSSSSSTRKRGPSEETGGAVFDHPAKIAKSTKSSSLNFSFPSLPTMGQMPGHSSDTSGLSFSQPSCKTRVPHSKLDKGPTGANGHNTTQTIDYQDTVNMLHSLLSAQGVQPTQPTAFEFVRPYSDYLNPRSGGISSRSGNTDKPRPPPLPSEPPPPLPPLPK
CDK9/cyclin T1, sequence (P50750 whole entry): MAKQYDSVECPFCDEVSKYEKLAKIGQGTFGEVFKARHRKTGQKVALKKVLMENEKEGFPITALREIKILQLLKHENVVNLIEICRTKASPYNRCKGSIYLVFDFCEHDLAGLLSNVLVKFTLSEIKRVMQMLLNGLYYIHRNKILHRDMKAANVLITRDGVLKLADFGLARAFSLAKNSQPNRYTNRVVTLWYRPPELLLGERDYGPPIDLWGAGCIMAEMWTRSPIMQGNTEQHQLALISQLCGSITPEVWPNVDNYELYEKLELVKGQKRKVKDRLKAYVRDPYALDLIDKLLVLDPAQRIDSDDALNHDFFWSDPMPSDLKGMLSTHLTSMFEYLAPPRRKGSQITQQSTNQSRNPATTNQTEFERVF
Description: Inhibition of CDK9/CyclinT1 (unknown origin) by ADP-Glo kinase assay

[27] = target: CDK1/Cyclin E (Homo sapiens) (UniProt P06493+P24864); conditions: dose 500.0 nM
CDK1/Cyclin E (Homo sapiens), sequence (P06493 whole entry, looked up): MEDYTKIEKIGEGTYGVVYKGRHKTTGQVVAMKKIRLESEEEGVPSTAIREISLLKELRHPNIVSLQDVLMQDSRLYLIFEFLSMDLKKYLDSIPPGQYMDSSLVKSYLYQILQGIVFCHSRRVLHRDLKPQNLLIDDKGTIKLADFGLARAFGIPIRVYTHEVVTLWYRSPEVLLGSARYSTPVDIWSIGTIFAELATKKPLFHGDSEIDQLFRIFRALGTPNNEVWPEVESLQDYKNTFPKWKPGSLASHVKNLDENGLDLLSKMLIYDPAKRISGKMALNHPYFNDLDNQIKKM
CDK1/Cyclin E (Homo sapiens), sequence (P24864 whole entry, looked up): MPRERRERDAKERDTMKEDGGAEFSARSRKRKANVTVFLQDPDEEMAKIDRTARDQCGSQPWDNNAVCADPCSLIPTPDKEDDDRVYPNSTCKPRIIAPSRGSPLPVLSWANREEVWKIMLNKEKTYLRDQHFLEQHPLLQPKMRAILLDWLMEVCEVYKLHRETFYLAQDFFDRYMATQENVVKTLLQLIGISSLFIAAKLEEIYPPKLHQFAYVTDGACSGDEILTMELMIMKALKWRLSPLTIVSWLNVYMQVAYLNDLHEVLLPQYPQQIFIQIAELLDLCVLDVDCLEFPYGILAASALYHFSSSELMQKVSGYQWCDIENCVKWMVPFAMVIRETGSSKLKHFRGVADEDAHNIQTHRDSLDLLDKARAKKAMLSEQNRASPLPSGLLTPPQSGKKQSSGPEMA
Description: Inhibition of CDK1/Cyclin E1 (unknown origin) at 500 nM by ADP-Glo kinase assay relative to control

SMILES: Cl.N[C@H]1CCN(c2c3c(nc4ccc(-c5ccnc(NC(=O)C6CC6)n5)cc24)CCCCC3)C1
- GI50 [1]: 9 nM
- GI50 [2]: 6 nM
- inhibition [3]: 99.8%
- inhibition [4]: 64.5%
- inhibition [5]: 60.4%
- inhibition [6]: 41.4%
- inhibition [7]: 16.6%
- inhibition [8]: Dose-Dependent Effect
- Activity [9]: 1.48%
- viability at 0.02 µM [10]: 52.5%
- Activity [11]: 46.65%
- Activity [12]: 42.75%
- LD50 at 336 h [13]: 104 mg/kg
- survival at 336 h [14]: 100%
- survival at 336 h [15]: 100%
- Activity [16]: Non-Toxic
- Activity [17]: Non-Toxic
- half-life [18]: 1.77 h
- Tmax [19]: 4.98 min
- Tmax [20]: 1 h
- AUC(0-inf) [21]: 316 ng·h/mL
- clearance [22]: 312 mL/min/kg
- Vd [23]: 12.6 L/kg
- bioavailability [24]: 27.5%
- inhibition in vivo at 10 mg/kg [25]: 47.7%
- IC50 [26]: 2.41 nM
- inhibition [27]: 48.6%
